# Measured values published in patent US7902226B2, “Dehalogeno-compounds” (Daiichi Pharmaceutical Co., Ltd., priority 2000, dated 2011).
# Where two headings read alike, the source gives them in different places.
# Columns and labels:
# [1] = Blood concentration and organ concentration after oral administration (absorption test groups); assay type: in vivo; conditions: fasting rats, 20 mg/kg; for Kp / Cmax / AUC(0-t) / half-life: male, Crj: CD IGS, rat; for Cmax / AUC(0-t) / half-life: serum; for AUC(0-t): read-out: Serum AUC0-4h; for half-life: read-out: Serum t1/2 (converted)
# Procedure: For the compound of this invention described as Example 1, the blood concentration and organ concentration after oral administration were determined by the following methods. Measurements were also made by the same methods for Reference drug 1.
# An administration solution was prepared by dissolving a tested compound to a concentration of 2 mg/ml (as free compound) in distilled water, and using a 2.5 ml disposable syringe or a metal oral probe, the solution was orally administered at a dose of 20 mg/kg to fasting rats (Crj: CD IGS; male; 7-week-old; Charles River Japan, Inc.).
# The absorption test groups (4 rats per group; total of 6 groups) were killed by exsanguination while under ether anesthetization 0.25, 0.5, 1, 2, 4, or 6 hours after drug administration, and the blood, liver, kidneys, and lungs were sampled. With the blood, serum was sampled by centrifugation (3000 rpm×15 minutes, 4° C.) after coagulation. Tissues were homogenized after adding 3 to 5 ml of 0.1M phosphate buffer solution (pH 7.0) and the centrifugation supernatants (3000 rmpm×15 minutes, 4° C.) were collected.
# Determination of drug concentrations in liquid samples were quantified by an agar well method bioassay using the B. subtilis ATCC6051 strain as the test organism. A test medium was prepared by inoculating a suspension containing 5×10^7 CFU/ml of spores of the test bacteria at a proportion of 1% into an nutrient agar (Eiken Kagaku) that was sterilized at 121° C. for 15 minutes and then cooled to approximately 50° C. After placing 10 ml each of this medium in a sterilized Petri dish and solidifying horizontally, four holes of 8 mm diameter were made to prepare a test plate medium. The Bioassay System TDA-1 (Dainippon Seiki) was used for preparation of the test plate media. For the measurements, the test samples (diluted with serum or phosphate buffer solution as necessary), serial dilutions of the drug solutions for calibration (two-fold serial dilutions prepared so that the inhibition ring diameter will be approximately 10 to 30 mm), and a reference drug solution (a drug solution of given concentration for correction of the error among plates; normally, a concentration of forming an inhibition ring of approximately […] is used) were prepared, and 50 μL of the test sample (or the drug solution for calibration) were placed in each of two of the four holes of each plate and 50 μL of the reference solution was placed in each of the other two holes. After addition of the sample, the plate medium was set still for 1 hour at 4° C. to perform preliminary dispersion and then culturing at 37° C. was performed for approximately 18 hours, and the inhibition ring diameters were measured using CA-400 (Dainippon Seiki). The concentrations of the test samples were measured using a calibration curve determined by second-order regression from the logarithmic values of the drug concentration of the calibration curve serial dilutions and the inhibition ring diameters.
# For the tissue concentration (μg/ml), the concentration (μg/ml) in the homogenate supernatant was determined from the tissue weight (g) and the added phosphate buffer amount (ml) and using the following equation: [Tissue concentration]=[Homogenate concentration]×([Tissue weight]+[Buffer solution amount])/[Tissue weight]
# For each drug, the pharmacokinetic parameters in rats were calculated based on mean concentration, by non-compartmental analysis, and using the pharmacodynamics analysis software, PSAG-CP (Asmedica).
# Ps. aeruginosa, 32104 = test: Antibacterial activity (MIC), standard method of the Japan Society of Chemotherapy; assay type: cell-based; conditions: Pseudomonas aeruginosa
# Procedure: (§1) Antibacterial activities of the compounds of this invention were measured in accordance to the standard method designated by the Japan Society of Chemotherapy, with the results shown as MIC values (microgram/ml) units in the following table. For comparison with the MIC values of the compounds of this invention, MIC values of levofloxacin (LVFX), ciprofloxacin (CPFX) and 7-[3-(R)-(1-aminocyclopropyl)pyrrolidin-1-yl]-6-fluoro-1-[2-(S)-fluoro-1-(R)-cyclopropyl]-8-methyl-1,4-dihydro-4-oxoquinoline-3-carboxylic acid (Reference drug 1), which is described in PCT/JP96/00208, are also shown in the table.
# [2] = system: Str. faecalis, ATCC 19433; test: as above; assay type: cell-based; conditions: Enterococcus faecalis, ATCC19433
# Procedure: as §1
# E. coli, NIHJ = test: as above; assay type: cell-based; conditions: Escherichia coli
# Procedure: as §1
# Pr. vulgalis, 08601 = test: as above; assay type: cell-based
# Procedure: as §1
# Ps. aeruginosa, 32121 = test: as above; assay type: cell-based; conditions: Pseudomonas aeruginosa
# Procedure: as §1
# [3] = system: Ps. maltophilia, IID-1275; test: as above; assay type: cell-based; conditions: Stenotrophomonas maltophilia, IID1275
# Procedure: as §1
# S. aureus, 870307 = test: as above; assay type: cell-based; conditions: Staphylococcus aureus
# Procedure: as §1
# S. flexneri, 2A 5503 = test: as above; assay type: cell-based; conditions: Shigella flexneri, 2A5503
# Procedure: as §1
# S. epidermidis, 56500 = test: as above; assay type: cell-based; conditions: Staphylococcus epidermidis
# Procedure: as §1
# Ser. marcescens, 10100 = test: as above; assay type: cell-based; conditions: Serratia marcescens
# Procedure: as §1
# Str. pyogenes, G-36 = test: as above; assay type: cell-based; conditions: Streptococcus pyogenes, G36
# Procedure: as §1
# Str. pneumoniae J24 = test: as above; assay type: cell-based; conditions: Streptococcus pneumoniae
# Procedure: as §1
# K. pneumoniae, Type 1 = test: as above; assay type: cell-based; conditions: Klebsiella pneumoniae, TYPE1
# Procedure: as §1
# S. aureus, 209P = test: as above; assay type: cell-based; conditions: Staphylococcus aureus
# Procedure: as §1
# [4] = kidney/serum, kidney, read-out: AUC0-4h tissue/serum ratio Kidney
# [5] = liver/serum, liver, read-out: AUC0-4h tissue/serum ratio Liver
# [6] = lung/serum, lung, read-out: AUC0-4h tissue/serum ratio Lung
Compound,Tissue AUC0-4h Kidney ([1]; kidney),Tissue Cmax Kidney ([1]; kidney) [µg/g],Tissue AUC0-4h Liver ([1]; liver),Tissue Cmax Liver ([1]; liver) [µg/g],Tissue AUC0-4h Lung ([1]; lung),Tissue Cmax Lung ([1]; lung) [µg/g],"Kp [1, 4]","Kp [1, 5]","Kp [1, 6]",Cmax [1] [ng/mL],AUC(0-t) [1] [ng·h/mL],half-life [1] [h],"MIC (Ps. aeruginosa, 32104) [µg/mL]",MIC [2] [µg/mL],"MIC (E. coli, NIHJ) [µg/mL]","MIC (Pr. vulgalis, 08601) [µg/mL]","MIC (Ps. aeruginosa, 32121) [µg/mL]",MIC [3] [µg/mL],"MIC (S. aureus, 870307) [µg/mL]","MIC (S. flexneri, 2A 5503) [µg/mL]",other results
"Cc1c(N2CC[C@@H](C3(N)CC3)C2)ccc2c(=O)c(C(=O)O)cn([C@@H]3C[C@@H]3F)c12 [Example 1, 7-[3-(R)-(1-aminocyclopropyl)pyrrolidin-1-yl]-1-[2-(S)-fluoro-1-(R)-cyclopropyl]-1,4-dihydro-8-methyl-4-oxoquinoline-3-carboxylic acid]",29.0,14.2,34.5,27.4,10.0,3.8,29,34.5,10,1700,3100,1.2,0.05,0.012,≤ 0.003,≤ 0.003,0.025,0.2,0.05,0.006,"MIC (S. epidermidis, 56500): ≤ 0.003 µg/mL; MIC (Ser. marcescens, 10100): 0.025 µg/mL; MIC (Str. pyogenes, G-36): ≤ 0.003 µg/mL; MIC (Str. pneumoniae J24): ≤ 0.003 µg/mL; MIC (K. pneumoniae, Type 1): 0.025 µg/mL; MIC (S. aureus, 209P): ≤ 0.003 µg/mL"
"Cc1c(N2CC[C@@H](C3(N)CC3)C2)c(F)cc2c(=O)c(C(=O)O)cn([C@@H]3C[C@@H]3F)c12 [Reference drug 1, 7-[3-(R)-(1-aminocyclopropyl)pyrrolidin-1-yl]-6-fluoro-1-[2-(S)-fluoro-1-(R)-cyclopropyl]-8-methyl-1,4-dihydro-4-oxoquinoline-3-carboxylic acid, reference compound]",7.1,5.0,10.4,11.6,5.3,3.0,7.1,10.4,5.3,1600,2300,1,0.025,0.006,≤ 0.003,≤ 0.003,0.012,≤ 0.003,0.012,≤ 0.003,"MIC (S. epidermidis, 56500): ≤ 0.003 µg/mL; MIC (Ser. marcescens, 10100): 0.012 µg/mL; MIC (Str. pyogenes, G-36): ≤ 0.003 µg/mL; MIC (Str. pneumoniae J24): ≤ 0.003 µg/mL; MIC (K. pneumoniae, Type 1): 0.006 µg/mL; MIC (S. aureus, 209P): ≤ 0.003 µg/mL"
